# Measurements: paper PMC6718442, “11β-Hydroxysteroid dehydrogenases control access of 7β,27-dihydroxycholesterol to retinoid-related orphan receptor γ” (Journal of Lipid Research, 2019)
# Like-named read-outs stand apart in the source and are kept apart here.
# Assays:
# [1] = molecular target: T1, RORγ (Homo sapiens, UniProt P51449); experiment: Glucose-6-phosphatase luciferase reporter in SW-620 cells overexpressing RORγ (preliminary); type: cell-based; set-up: expressed in transfected cells; host or cells: SW-620; details: inhibition of 11β-HSD2 by GA in SW-620 cells, trend
# T1 sequence (P51449 1-518): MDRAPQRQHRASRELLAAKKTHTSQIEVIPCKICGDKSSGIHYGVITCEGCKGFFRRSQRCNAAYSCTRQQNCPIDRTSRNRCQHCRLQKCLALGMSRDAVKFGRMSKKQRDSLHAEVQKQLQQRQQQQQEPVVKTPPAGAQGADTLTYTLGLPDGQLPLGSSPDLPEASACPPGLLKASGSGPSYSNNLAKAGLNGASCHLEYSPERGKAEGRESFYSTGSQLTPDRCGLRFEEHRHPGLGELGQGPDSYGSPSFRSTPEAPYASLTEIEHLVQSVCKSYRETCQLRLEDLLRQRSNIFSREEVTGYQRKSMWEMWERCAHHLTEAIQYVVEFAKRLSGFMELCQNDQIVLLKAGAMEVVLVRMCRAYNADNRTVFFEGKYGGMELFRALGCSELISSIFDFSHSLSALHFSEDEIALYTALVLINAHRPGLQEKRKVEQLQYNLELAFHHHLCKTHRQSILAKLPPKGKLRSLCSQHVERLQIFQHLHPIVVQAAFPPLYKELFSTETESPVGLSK
# [2] = molecular target: T2, 11β-HSD2 (Homo sapiens, UniProt P80365); set-up: method as in PMID 30902677; details: intact cells, oxidation by 11β-HSD2, ref [46], cited from earlier work
# T2 construct: expressed in transfected cells
# T2 sequence (P80365 1-405): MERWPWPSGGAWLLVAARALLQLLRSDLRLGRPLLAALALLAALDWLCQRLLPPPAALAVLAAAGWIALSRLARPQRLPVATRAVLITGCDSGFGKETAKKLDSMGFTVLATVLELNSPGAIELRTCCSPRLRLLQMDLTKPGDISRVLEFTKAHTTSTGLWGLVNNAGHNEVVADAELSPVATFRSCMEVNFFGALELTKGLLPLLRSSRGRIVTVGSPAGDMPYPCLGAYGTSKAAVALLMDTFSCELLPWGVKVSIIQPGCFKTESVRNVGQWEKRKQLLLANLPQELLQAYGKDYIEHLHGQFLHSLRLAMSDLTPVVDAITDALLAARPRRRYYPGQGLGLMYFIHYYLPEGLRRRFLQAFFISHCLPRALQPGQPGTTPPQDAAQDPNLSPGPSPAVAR
# [3] = molecular target: T2, 11β-HSD2; details: substrate of 11β-HSD2, ref [34], cited from earlier work
# [4] = molecular target: T3, human 11β-HSD1 (Homo sapiens, UniProt P28845); details: substrate of 11β-HSD1, cited from earlier work
# T3 construct: expressed in transfected cells
# T3 sequence (P28845 whole entry): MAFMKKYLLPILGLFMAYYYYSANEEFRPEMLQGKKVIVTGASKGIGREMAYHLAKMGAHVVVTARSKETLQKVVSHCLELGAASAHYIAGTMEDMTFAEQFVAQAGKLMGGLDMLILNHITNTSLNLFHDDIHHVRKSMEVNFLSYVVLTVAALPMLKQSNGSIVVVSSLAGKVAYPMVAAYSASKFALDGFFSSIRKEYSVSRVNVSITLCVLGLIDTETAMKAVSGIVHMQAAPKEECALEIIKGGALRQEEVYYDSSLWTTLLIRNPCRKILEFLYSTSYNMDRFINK
# [5] = molecular target: T3, human 11β-HSD1; set-up: method as in PMID 30902677; details: intact cells, oxoreduction by 11β-HSD1, ref [46], cited from earlier work
smiles,measurement,setting,value
"CC1(C)[C@@H](O)CC[C@]2(C)[C@H]3C(=O)C=C4[C@@H]5C[C@@](C)(C(=O)O)CC[C@]5(C)CC[C@@]4(C)[C@]3(C)CC[C@@H]12 [GA, glycyrrhetinic acid]",Increase of RORγ activity compared with cells treated with 7β27OHC only,[1],approximately 10%
C[C@]12CCC(=O)C=C1CC[C@@H]1[C@@H]2[C@@H](O)C[C@@]2(C)[C@H]1CC[C@]2(O)C(=O)CO [cortisol],Vapp cell intact,[2],1.01 ± 0.35 nmol·h^−1·mg total protein^−1
same,Vapp cell intact,[2]; listed as Cortisol,1.01 ± 0.35 ([46]) nmol·h^−1·mg total protein^−1
same,KMapp,[3],~200 nM
same,KMapp,[3]; listed as Cortisol,200 ([34]) nM
"CC(C)CCC[C@@H](C)[C@H]1CC[C@H]2[C@@H]3C(=O)C=C4C[C@@H](O)CC[C@]4(C)[C@H]3CC[C@]12C [7kC, 7-ketocholesterol]",KMapp,[4]; ref [19],~500 nM
"C[C@H](CCC(=O)O)[C@H]1CC[C@H]2[C@@H]3C(=O)C[C@@H]4C[C@H](O)CC[C@]4(C)[C@H]3CC[C@]12C [7oxoLCA, 7-oxolithocholic acid]",KMapp,[4]; ref [49],~1000 nM
"C[C@]12CC(=O)[C@H]3[C@@H](CCC4=CC(=O)CC[C@@]43C)[C@@H]1CC[C@@H]2C(=O)CO [11-DHC, 11-dehydrocorticosterone]",KMapp,"[4]; ref [19], [34]",250 to 500 nM
"C[C@]12CCC(=O)C=C1CC[C@@H]1[C@@H]2C(=O)C[C@@]2(C)[C@H]1CC[C@]2(O)C(=O)CO [cortisone, reference compound]",Vapp cell intact,[5],1.59 ± 0.25 nmol·h^−1·mg total protein^−1
same,Vapp cell intact,[5]; listed as Cortisone,1.59 ± 0.25 ([46]) nmol·h^−1·mg total protein^−1
same,KMapp,"[4]; ref [19], [34]",250 to 500 nM
same,KMapp,"[4]; ref [19], [34], listed as Cortisone","250–500 ([19], [34]) nM"
